The results in this text go back to paper PMC10987960.

Each structure is given as a SMILES string.

The target in one assay is T1, PEDV 3CL^pro (Porcine epidemic diarrhea virus CV777, UniProt P0C6Y4).
T1 construct: gene rep; mature nsp5 cut from replicase polyproteins pp1a/pp1ab; N- and C-terminal His tags (kept, no cleavage told), pET-28a(+), E. coli BL21(DE3), nickel column; docking used PDB 4XFQ
T1 sequence (P0C6Y4 2998-3299 limits assumed): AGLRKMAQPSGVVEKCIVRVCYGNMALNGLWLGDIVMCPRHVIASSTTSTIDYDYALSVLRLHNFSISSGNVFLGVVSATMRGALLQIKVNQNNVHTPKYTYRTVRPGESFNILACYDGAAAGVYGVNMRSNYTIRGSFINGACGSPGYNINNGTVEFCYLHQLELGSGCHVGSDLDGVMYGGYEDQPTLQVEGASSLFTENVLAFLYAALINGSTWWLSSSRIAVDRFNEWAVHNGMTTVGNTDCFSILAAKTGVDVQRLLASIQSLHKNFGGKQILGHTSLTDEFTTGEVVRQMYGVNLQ
Put plainly: FRET protease assay, Dabcyl/Edans peptide. Type of assay: biochemical. As to conditions: read-out: Inhibitory rate. From the text:
FRET protease assay, Dabcyl/Edans peptide on PEDV 3CL^pro
As to `O=C(O[C@@H]1Cc2c(O)cc(O)cc2O[C@H]1c1cc(O)c(O)c(O)c1)c1cc(O)c(O)c(O)c1` [compound 1, (−)-Gallocatechin gallate], the inhibition at 20 µM was found to be 97.65 ± 0.35%.
The same measure, in the same setting: with `O=c1c(O)c(-c2ccc(O)c(O)c2)oc2cc(O)ccc12` [compound 2, Fisetin] the figure was 96.8 ± 2.64%; with `O=c1c(O)c(-c2ccc(O)c(O)c2)oc2cc(O)c(O)c(O)c12` [compound 3, Quercetagetin], 91.8 ± 2.74%.
On the same count and under the same terms, the same measure for `O=c1c(-c2ccc(O)cc2)coc2cc(O)ccc12` [compound 4, Daidzein]: 91.26 ± 0.85%.
As to `O=c1c(O)c(-c2cc(O)c(O)c(O)c2)oc2cc(O)cc(O)c12` [compound 6, Myricetin], the inhibition at 20 µM stood at 75.3 ± 2.33%.

In the next assay the target is T1, PEDV 3CL^pro. The assay is described as follows: FRET protease assay, Dabcyl/Edans peptide. Type of assay: biochemical.
Conditions: not given
As for `O=c1cc(-c2ccccc2)oc2cc(O)c(O)c(O)c12` [Baicalein], the IC50 came to 9.5 ± 1.02 µM.
Take `O=C(O)[C@H]1O[C@@H](Oc2cc3oc(-c4ccccc4)cc(=O)c3c(O)c2O)[C@H](O)[C@@H](O)[C@@H]1O` [Baicalin]: the IC50 worked out at 65.8 ± 6.57 µM. Against the preceding compound, the IC50 is about 6.9-fold higher.

What is called IC50 is the concentration needed to halve the response being measured. Low readings indicate greater potency, high ones weaker potency.
